Measured values taken from US9382288B2, “Derivatives of steroid benzylamines, having an antiparasitic antibacterial, antimycotic and/or antiviral action” (Justus-Liebig-Universitat Giessen, priority 2010, dated 2016).
Values after ≈ are worked out from the molar mass of the structure shown. Where two headings read alike, the source gives them in different places.

Experiments:
[1] = system: P. falciparum strain 3D7-Netherlands; assay: In vitro IC50, 3H-hypoxanthine incorporation, P. falciparum 3D7; format: cell-based, Plasmodium falciparum; details: for IC50: Plasmodium falciparum; for in vitro activity in words: compared with compound 1
L929 = assay: Antiproliferative activity L929; format: cell-based; details: Mus musculus, read-out: IC50 [μg/ml] Antiproliferative activity L929
K562 = assay: Antiproliferative activity K562; format: cell-based; details: Homo sapiens, read-out: IC50 [μg/ml] Antiproliferative activity K562
[2] = system: Plasmodium berghei GFP MRA-865; assay: Plasmodium berghei infection in the mouse model (in vivo); details: for Activity (%): parasitemia day 4 vs untreated controls
adult S. mansoni = assay: In vitro treatment of adult S. mansoni couples, visual evaluation by microscope; set-up: species or system Schistosoma mansoni
Procedure: Compounds 2, 18 and 41 were tested by Prof. Dr. Grevelding, Parasitology, Veterinary Medicine, University of Gieβen, also in the parasite Schistosoma mansoni. […] Each test was performed with 3 groups of 10 worms each. Remarkable was that different effects on the worms with respect to morphological alterations could be observed. […] Exemplarily shown in FIGS. 1 and 2 is an image of a control assay and an image of trematodes after 48 hours of incubation with compound 18.
Each one of the three groups (one group per well) comprised 10 pairs of adult S. mansoni were incubated with the substance to be tested for 24 h. As control served three groups which were incubated with medium (M199) and three groups which were incubated with medium and DMSO as solvent of the test substances. Evaluation was done visually using a microscope.
In a second experimental setting, again three groups each (one group per well) with 8 pairs of adult S. mansoni each were incubated with the compound to be tested, however for 48 h in this experiment. As control served three groups which were either incubated with medium (M199) or medium and DMSO as solvent of the test substances. Evaluation was done visually using a microscope.

Cytotoxicity HeLa = details: human, HeLa cells
[3] = system: Trypanosoma brucei brucei S427; assay: In vitro efficacy against Trypanosoma brucei; format: cell-based
Procedure: Compounds 18 and 41 were assessed at the London School of Hygiene and Tropical Medicine in vitro with respect to their efficacy against the parasite Trypanosoma brucei brucei […].

[4] = 3D7, read-out: IC50 [ng/ml] P.f.(3D7)
[5] = P. falciparum strain 3D7, read-out: IC50 [nM] P.f.(3D7)
[6] = 24 hours, 100 μM, 3 groups of 10 pairs
[7] = 48 hours, 20 μM, 3 groups of 8 pairs
[8] = 48 hours, 100 μM, 3 groups of 8 pairs
[9] = P. falciparum strain 3D7, read-out: IC50 [ng/ml] P.f.(3D7)

Structure (SMILES): COc1ccc2c(c1)CCC1C2CC[C@@]2(C)C1CC[C@H]2NCc1ccccc1O (stereo partly drawn) [Compound 2, 17α-(2-Hydroxyphenyl-methylamino)-3-methoxy-estra-1,3,5(10)-triene]
- IC50 [1, 4]: 2.9 ng/mL
- IC50 [1, 5]: 7.4 nM
- IC50 (L929): 1.9 µg/mL (≈ 4.85 µM)
- IC50 (K562): 0.5 µg/mL (≈ 1.28 µM)
- life span in words ([2]; all dosages and routes of administration tested): considerably extended the life span
- MSD (days) ([2]; oral 3 × 10 mg/kg): 8.7 (n = 3) days
- Activity (%) ([2]; oral 3 × 10 mg/kg): 46.8%
- MSD (days) ([2]; oral 3 × 30 mg/kg): 13 (n = 3) days
- Activity (%) ([2]; oral 3 × 30 mg/kg): 99.4%
- MSD (days) ([2]; oral 3 × 100 mg/kg): 15.33 (n = 3) days
- Activity (%) ([2]; oral 3 × 100 mg/kg): 99.7%
- MSD (days) ([2]; sc 3 × 10 mg/kg): 7 (n = 3) days
- Activity (%) ([2]; sc 3 × 10 mg/kg): 17.7%
- MSD (days) ([2]; sc 3 × 30 mg/kg): 14 (n = 3) days
- Activity (%) ([2]; sc 3 × 30 mg/kg): 61.8%
- morphological alterations of the worms (adult S. mansoni): ventrally curved in a cork-screw like manner
- egg production (adult S. mansoni; 24 hours, 100 μM): Almost no eggs were detectable
- motility / vitality (adult S. mansoni; 24 hours, 100 μM): Trematodes moved only slightly and with twitching movements
- couples detectable (adult S. mansoni; [6]): in two of the groups each one couple was detected
- egg production (adult S. mansoni; 48 hours, 20 μM): No eggs were detectable
- motility / vitality (adult S. mansoni; 48 hours, 20 μM): The trematodes barely moved
- couples detectable (adult S. mansoni; [7]): no couples could be observed in any of the groups
- egg production (adult S. mansoni; 48 hours, 100 μM): No eggs were detectable
- motility / vitality (adult S. mansoni; 48 hours, 100 μM): All trematodes were dead
- couples detectable (adult S. mansoni; [8]): no couples could be observed in any of the groups
- IC50 (Cytotoxicity HeLa): 3.1 µg/mL (≈ 7.92 µM)

Structure (SMILES): COc1ccc2c(c1)CCC1C2CC[C@]2(C)C[C@@H](NCc3ccccc3O)CC12 (stereo partly drawn) [Compound 3, 16β-(2-Hydroxyphenyl-methylamino)-3-methoxy-estra-1,3,5(10)-triene]
- IC50 [1, 5]: 62 nM
- IC50 [1, 9]: 24.5 ng/mL
- in vitro activity in words [1]: comparable activity
- IC50 (L929): 1.9 µg/mL (≈ 4.85 µM)
- IC50 (K562): 0.7 µg/mL (≈ 1.79 µM)
- IC50 (Cytotoxicity HeLa): 4.4 µg/mL (≈ 11.2 µM)

Structure (SMILES): COc1ccc2c(c1)CCC1C2CC[C@]2(C)C[C@H](NCc3ccccc3O)CC12 (stereo partly drawn) [Compound 4, 16α-(2-Hydroxyphenyl-methylamino)-3-methoxy-estra-1,3,5(10)-triene]
- IC50 [1, 5]: 41.5 nM
- IC50 [1, 9]: 16.4 ng/mL
- in vitro activity in words [1]: comparable activity
- IC50 (L929): 1.6 µg/mL (≈ 4.09 µM)
- IC50 (K562): 1.3 µg/mL (≈ 3.32 µM)
- IC50 (Cytotoxicity HeLa): 4.7 µg/mL (≈ 12 µM)

Structure (SMILES): COc1ccc2c(c1)CCC1C2CC[C@@]2(C)C1CC[C@H]2NCc1ccccc1OC (stereo partly drawn) [Compound 5, 17α-(2-Methoxyphenyl-methylamino)-3-methoxy-estra-1,3,5(10)-triene]
- IC50 [1, 5]: 879 nM
- IC50 [1, 9]: 578 ng/mL

Structure (SMILES): COc1ccc2c(c1)CCC1C2CC[C@@]2(C)C1CC[C@H]2NCc1cccc(O)c1 (stereo partly drawn) [Compound 6, 17α-(3-Hydroxyphenyl-methylamino)-3-methoxy-estra-1,3,5(10)-triene]
- IC50 [1, 5]: 440 nM
- IC50 [1, 9]: 172 ng/mL

Structure (SMILES): COc1ccc2c(c1)CCC1C2CC[C@@]2(C)C1CC[C@H]2NCc1ccc(O)cc1 (stereo partly drawn) [Compound 7]
- IC50 [1, 5]: 115 nM
- IC50 [1, 9]: 45 ng/mL

Structure (SMILES): COc1ccc2c(c1)CCC1C2CC[C@@]2(C)C1CC[C@H]2NCc1c(O)ccc2ccccc12 (stereo partly drawn) [Compound 17, 17α-[(2-Hydroxynaphth-1-yl)-methylamino]-3-methoxy-estra-1,3,5(10)-triene]
- IC50 [1, 5]: 72.8 nM
- IC50 [1, 9]: 32.1 ng/mL

Structure (SMILES): COc1ccc2c(c1)CCC1C2CC[C@@]2(C)C1CC[C@@H]2NCc1cc2ccccc2cc1O (stereo partly drawn) [Compound 18, 17β-[(3-Hydroxynaphth-2-yl)-methylamino]-3-methoxy-estra-1,3,5(10)-triene]
- IC50 [1, 4]: 3.1 ng/mL
- IC50 [1, 5]: 7 nM
- morphological alterations of the worms (adult S. mansoni): ventral bending
- egg production (adult S. mansoni; 24 hours, 20 μM): Almost no eggs were detectable
- motility / vitality (adult S. mansoni; 24 hours, 20 μM): Males barely moved and showed only twitching
- couples detectable (adult S. mansoni; 24 hours, 20 μM, 3 groups of 10 pairs): no couples could be detected
- egg production (adult S. mansoni; 24 hours, 100 μM): Almost no eggs were detectable
- motility / vitality (adult S. mansoni; 24 hours, 100 μM): The trematodes rarely showed slightly twitching movements
- couples detectable (adult S. mansoni; [6]): no couples could be detected
- egg production (adult S. mansoni; 48 hours, 20 μM): No eggs were detectable
- motility / vitality (adult S. mansoni; 48 hours, 20 μM): all worms were dead
- couples detectable (adult S. mansoni; [7]): no couples could be observed in any of the groups
- egg production (adult S. mansoni; 48 hours, 100 μM): No eggs were detectable
- motility / vitality (adult S. mansoni; 48 hours, 100 μM): all worms were dead
- couples detectable (adult S. mansoni; [8]): no couples could be observed in any of the groups
- IC50 [3]: 930 nM

Structure (SMILES): COc1ccc2c(c1)CCC1C2CC[C@@]2(C)C1CC[C@@H]2NCc1c(O)ccc2ccccc12 (stereo partly drawn) [Compound 19, 17β-[(2-Hydroxynaphth-1-yl)-methylamino]-3-methoxy-estra-1,3,5(10)-triene hydroperchlorate]
- IC50 [1, 5]: 182 nM
- IC50 [1, 9]: 98.6 ng/mL

Structure (SMILES): COc1ccc2c(c1)CCC1C2CC[C@@]2(C)C1CC[C@@H]2NCc1cccc(O)c1 (stereo partly drawn) [Compound 20, 17β-(3-Hydroxyphenyl-methylamino)-3-methoxy-estra-1,3,5(10)-triene]
- IC50 [1, 5]: 733 nM
- IC50 [1, 9]: 287 ng/mL

Structure (SMILES): CCN(CC)c1ccc(CN[C@H]2CCC3C4CCc5cc(OC)ccc5C4CC[C@@]32C)c(O)c1 (stereo partly drawn) [Compound 23, 17β-[4-(N,N-Diethylamino)-2-hydroxyphenyl-methylamino]-3-methoxy-estra-1,3,5(10)-triene]
- IC50 [1, 5]: 716 nM
- IC50 [1, 9]: 331 ng/mL

Structure (SMILES): COc1ccc2c(c1)CC[C@@H]1[C@@H]2CC[C@]2(C)[C@@H](O)[C@H](N(C)c3cc4ccccc4cc3O)C[C@@H]12 [Compound 32, 16α-[(3-Hydroxy-naphth-2-yl)-methylamino]-17β-hydroxy-3-methoxy-estra-1,3,5(10)-triene]
- IC50 [1, 5]: 29.9 nM
- IC50 [1, 9]: 13.7 ng/mL

Structure (SMILES): COc1ccc2c(c1)CC[C@@H]1[C@@H]2CC[C@]2(C)[C@H](O)[C@H](N(C)c3cc4ccccc4cc3O)C[C@@H]12 [Compound 36, 16α-[(3-Hydroxy-naphth-2-yl)-methylamino]-17α-hydroxy-3-methoxy-estra-1,3,5(10)-triene]
- IC50 [1, 5]: 42.1 nM
- IC50 [1, 9]: 19.3 ng/mL

Structure (SMILES): COc1ccc2c(c1)CCC1C2CC[C@@]2(C)C1C[C@H](NCc1ccccc1O)[C@@H]2O (stereo partly drawn) [Compound 42, 16β-(2-Hydroxyphenyl-methylamino)-17β-hydroxy-3-methoxy-estra-1,3,5(10)-triene]
- IC50 [1, 5]: 227 nM
- IC50 [1, 9]: 91.3 ng/mL

Structure (SMILES): COc1ccc2c(c1)CCC1C2CC[C@@]2(C)C1C[C@@H](NCc1ccccc1O)[C@@H]2O (stereo partly drawn) [Compound 43, 16α-(2-Hydroxyphenyl-methylamino)-17β-hydroxy-3-methoxy-estra-1,3,5(10)-triene]
- IC50 [1, 5]: 58.5 nM
- IC50 [1, 9]: 23.9 ng/mL
- IC50 (L929): 2 µg/mL (≈ 4.91 µM)
- IC50 (K562): 1.2 µg/mL (≈ 2.94 µM)
- IC50 (Cytotoxicity HeLa): 7.7 µg/mL (≈ 18.9 µM)

Structure (SMILES): COc1ccc2c(c1)CCC1C2CC[C@@]2(C)C1C[C@H](NCc1ccccc1O)[C@H]2O (stereo partly drawn) [Compound 44, 16β-(2-Hydroxyphenyl-methylamino)-17α-hydroxy-3-methoxy-estra-1,3,5(10)-triene]
- IC50 [1, 5]: 676 nM
- IC50 [1, 9]: 275 ng/mL
- IC50 (L929): 2.5 µg/mL (≈ 6.13 µM)
- IC50 (K562): 0.85 µg/mL (≈ 2.09 µM)
- IC50 (Cytotoxicity HeLa): 3.4 µg/mL (≈ 8.34 µM)

Structure (SMILES): COc1ccc2c(c1)CCC1C2CC[C@@]2(C)C1C[C@@H](NCc1ccccc1O)[C@H]2O (stereo partly drawn) [Compound 45, 16α-(2-Hydroxyphenyl-methylamino)-17α-hydroxy-3-methoxy-estra-1,3,5(10)-triene]
- IC50 [1, 5]: 101 nM
- IC50 [1, 9]: 41 ng/mL

Structure (SMILES): COc1ccc2c(c1)CCC1C2CC[C@]2(C)C1C[C@H](NCc1ccccc1O)[C@@H]2O (stereo partly drawn) [Compound 47, 16β-(2-Hydroxyphenyl-methylamino)-17β-hydroxy-3-methoxy-13α-estra-1,3,5(10)-triene]
- IC50 [1, 5]: 140 nM
- IC50 [1, 9]: 57.3 ng/mL

Structure (SMILES): COc1ccc2c(c1)CCC1C2CC[C@]2(C)C1C[C@@H](NCc1ccccc1O)[C@@H]2O (stereo partly drawn) [Compound 48, 16α-(2-Hydroxyphenyl-methylamino)-17β-hydroxy-3-methoxy-13α-estra-1,3,5(10)-triene]
- IC50 [1, 5]: 83.3 nM
- IC50 [1, 9]: 34 ng/mL

Structure (SMILES): COc1ccc2c(c1)CCC1C2CC[C@@]2(C)C1C[C@H](NCc1cc(C(C)(C)C)cc(C(C)(C)C)c1O)[C@H]2O (stereo partly drawn) [Ref 1, 16β-(2-Hydroxy-3,5-di-tert-butylphenyl-methylamino)-17α-hydroxy-3-methoxy-estra-1,3,5(10)-triene, reference compound]
- IC50 [1, 5]: 1610 nM
- IC50 [1, 9]: 836 ng/mL

Structure (SMILES): CCN(CC)CCCC(C)Nc1ccnc2cc(Cl)ccc12 (stereo not drawn) [chloroquine, reference compound]
- MSD chloroquine ip 3 × 10 mg/kg ([2]; ip 3 × 10 mg/kg): 13.6 days
